Read-outs that look alike come from different tables or passages of the source. Peptide text beside a SMILES is read from it. A value given as a limit tells only on which side of the number the result lay.

In this experiment the test system is HSV1. The class given is cell-based, Human herpes simplex virus type 1. The conditions noted are these: for efficacy for reducing HSV1 infectivity (in words): Examples 2 and 3. How it is done: African Green Monkey Kidney (Vero) cells were maintained in Eagle's minimum essential medium with Earle's salt (EMEM) and supplemented with 10% foetal calf serum (heat-inactivated), 4 mM L-glutamine, and 1% (v/v) nonessential amino acids, plus penicillin and streptomycin (100 IU/mg and […], respectively) (maintenance medium referred to as 10% EMEM). The cells were incubated at 37° C. in a humidified atmosphere of air with 5% CO2.
On harvesting, monolayers were washed in phosphate-buffered saline (PBS), and dislodged by incubating with trypsin in PBS for 30 min, before inactivating trypsin by addition of an equal volume of 10% EMEM and centrifuging at 500 g (5 min, 4° C.). Cell pellets were resuspended in 10% EMEM, prior to cell counting and seeding of 24-well plates. For antiviral assays, medium containing only 0.5% FCS was used (referred to as 0.5% EMEM).
Three separate passages of HSV1 virus were prepared by infecting Vero cells, and preparing semi-pure suspensions of virus from tissue culture supernatant and cell lysates, before freezing aliquots of virus at −85° C. Viral infectivity was assessed by carrying out plaque assays on serial dilutions of thawed aliquots (expressed in pfu/ml).
Peptides were obtained in lyophilised form from a commercial supplier (AltaBioscience, University of Birmingham or Advanced Biomedical), and were produced at 5 micromole scale. N-terminals were protected by addition of an acetyl group, and the C-terminals were protected by addition of an amide group.
Small quantities of peptide were weighed in sterile Eppendorf tubes, before addition of sufficient 0.5% EMEM to produce a 1.5 mM stock solution, which was frozen at −20° C. in aliquots.
Vero cells were seeded at 125,000 cells per well in 10% EMEM, and were incubated overnight resulting in confluent monolayers. […] Virus stocks (p3) were thawed, and diluted in 0.5% EMEM such that there were around 100 pfu in 100 μl. Each 24-well plate was inoculated separately. Firstly 100 μl of virus stock was added to the peptide or control medium arranged on a 96-well plate. This was incubated at 37° C. for ten minutes before inoculation. Medium was removed from four wells of a 24-well plate containing confluent Vero, and the 200 μl inoculum added to the appropriate well. Once all wells were treated, the 24-well plate was incubated for a further 60-80 minutes. Finally the peptide-containing inoculum was removed, and 1 ml of 1% EMEM containing 1% carboxymethylcellulose was added to each well. Plates were incubated for a further 22 hours or in some experiments 40 hours, before removal of overlay, and addition of 10% formaldehyde in PBS. After a further one hour incubation, fixative was removed, monolayers washed several times with tap water, and stained with carbol fuchsin solubilised in water. After 30 minutes stain was removed, and plates washed several times with tap water, before being air dried. Plaques were counted using an Olympus IX70 Inverting Microscope, and antiviral effect expressed as a percentage of the control value for each peptide concentration. The IC50 was calculated from plots of inhibitory effect against peptide concentration.

For `CC(=O)N[C@@H](CC(C)C)C(=O)N[C@@H](CCCNC(=N)N)C(=O)N[C@@H](CCCCN)C(=O)N[C@@H](CCCNC(=N)N)C(=O)N[C@@H](CC(C)C)C(=O)N[C@@H](CC(C)C)C(=O)N[C@@H](CC(C)C)C(=O)N[C@@H](CCCNC(=N)N)C(=O)N[C@@H](CCCCN)C(=O)N[C@@H](CC(C)C)C(=O)N[C@@H](CCCNC(=N)N)C(=O)N[C@@H](CCCCN)C(=O)N[C@@H](CCCNC(=N)N)C(=O)N[C@@H](CC(C)C)C(=O)N[C@@H](CC(C)C)C(N)=O` [GIN 2] (Ac-LRKRLLLRKLRKRLL-NH2), the half-inhibitory concentration (IC50) was over 40 µM and the “efficacy for reducing HSV1 infectivity (in words)” value is “no, or poor, efficacy”.
With `CC(=O)N[C@@H](CC(C)C)C(=O)N[C@@H](CCCNC(=N)N)C(=O)N[C@@H](CCCCN)C(=O)N[C@@H](CC(C)C)C(=O)N[C@@H](CCCNC(=N)N)C(=O)N[C@@H](CCCCN)C(=O)N[C@@H](CCCNC(=N)N)C(=O)N[C@@H](CC(C)C)C(=O)N[C@@H](CC(C)C)C(=O)N[C@@H](CC(C)C)C(=O)N[C@@H](CCCNC(=N)N)C(=O)N[C@@H](CCCCN)C(=O)N[C@@H](CC(C)C)C(=O)N[C@@H](CCCNC(=N)N)C(=O)N[C@@H](CCCCN)C(N)=O` [GIN 4] (Ac-LRKLRKRLLLRKLRK-NH2), the IC50 is 29.5 µM and the “efficacy for reducing HSV1 infectivity (in words)” value is “no, or poor, efficacy”.
As for `CC(=O)N[C@@H](CC(C)C)C(=O)N[C@@H](CCCNC(=N)N)C(=O)N[C@@H](CCCCN)C(=O)N[C@@H](CC(C)C)C(=O)N[C@@H](CCCNC(=N)N)C(=O)N[C@@H](CCCCN)C(=O)N[C@@H](CCCNC(=N)N)C(=O)N[C@@H](CC(C)C)C(=O)N[C@@H](CC(C)C)C(=O)N[C@@H](CC(C)C)C(=O)N[C@@H](CCCNC(=N)N)C(=O)N[C@@H](CCCCN)C(N)=O` [GIN 5] (Ac-LRKLRKRLLLRK-NH2), the half-maximal inhibitory concentration (IC50) was over 40 µM and the “efficacy for reducing HSV1 infectivity (in words)” value is “no, or poor, efficacy”.
In the case of `CC(=O)N[C@@H](CCC(=O)O)C(=O)N[C@@H](CCCNC(=N)N)C(=O)N[C@@H](CCCCN)C(=O)N[C@@H](CCC(=O)O)C(=O)N[C@@H](CCCNC(=N)N)C(=O)N[C@@H](CCCCN)C(=O)N[C@@H](CCCNC(=N)N)C(=O)N[C@@H](CCC(=O)O)C(=O)N[C@@H](CCC(=O)O)C(=O)N[C@@H](CCC(=O)O)C(=O)N[C@@H](CCCNC(=N)N)C(=O)N[C@@H](CCCCN)C(=O)N[C@@H](CCC(=O)O)C(=O)N[C@@H](CCCNC(=N)N)C(=O)N[C@@H](CCCCN)C(=O)N[C@@H](CCCNC(=N)N)C(=O)N[C@@H](CCC(=O)O)C(=O)N[C@@H](CCC(=O)O)C(N)=O` [GIN 6] (Ac-ERKERKREEERKERKREE-NH2), the half-inhibitory concentration (IC50) is over 40 µM and the “efficacy for reducing HSV1 infectivity (in words)” value is reported as “no, or poor, efficacy”.
The like results for `CC(=O)N[C@@H](CC(C)C)C(=O)N[C@@H](CCCNC(=N)N)C(=O)N[C@@H](CCCCN)C(=O)N[C@@H](CC(C)C)C(=O)N[C@@H](CCCNC(=N)N)C(=O)N[C@@H](CCCCN)C(=O)N[C@@H](CCCNC(=N)N)C(=O)N[C@@H](CC(C)C)C(=O)N[C@@H](CCCNC(=N)N)C(=O)N[C@@H](CCCCN)C(=O)N[C@@H](CC(C)C)C(=O)N[C@@H](CCCNC(=N)N)C(=O)N[C@@H](CCCCN)C(=O)N[C@@H](CCCNC(=N)N)C(N)=O` [GIN 8] (Ac-LRKLRKRLRKLRKR-NH2) were, in that order, 13 µM and “had efficacy”.
On to `CC(=O)N[C@@H](CC(C)C)C(=O)N[C@@H](CCCNC(=N)N)C(=O)N[C@@H](CCCCN)C(=O)N[C@@H](CC(C)C)C(=O)N[C@@H](CCCNC(=N)N)C(=O)N[C@@H](CCCCN)C(=O)N[C@@H](CC(C)C)C(=O)N[C@@H](CCCNC(=N)N)C(=O)N[C@@H](CCCCN)C(=O)N[C@@H](CC(C)C)C(=O)N[C@@H](CCCNC(=N)N)C(=O)N[C@@H](CCCCN)C(=O)N[C@@H](CC(C)C)C(=O)N[C@@H](CCCNC(=N)N)C(=O)N[C@@H](CCCCN)C(=O)N[C@@H](CC(C)C)C(=O)N[C@@H](CCCNC(=N)N)C(=O)N[C@@H](CCCCN)C(N)=O` [GIN 9] (Ac-LRKLRKLRKLRKLRKLRK-NH2), for which the IC50 is 15.5 µM and the “efficacy for reducing HSV1 infectivity (in words)” value was “had efficacy”.
Regarding `CC(=O)N[C@@H](CCCNC(=N)N)C(=O)N[C@@H](CC(C)C)C(=O)N[C@@H](CC(C)C)C(=O)N[C@@H](CCCNC(=N)N)C(=O)N[C@@H](CC(C)C)C(=O)N[C@@H](CC(C)C)C(=O)N[C@@H](CCCNC(=N)N)C(=O)N[C@@H](CC(C)C)C(=O)N[C@@H](CC(C)C)C(=O)N[C@@H](CCCNC(=N)N)C(=O)N[C@@H](CC(C)C)C(=O)N[C@@H](CC(C)C)C(=O)N[C@@H](CCCNC(=N)N)C(=O)N[C@@H](CC(C)C)C(=O)N[C@@H](CC(C)C)C(=O)N[C@@H](CCCNC(=N)N)C(=O)N[C@@H](CC(C)C)C(=O)N[C@@H](CC(C)C)C(N)=O` [GIN 10] (Ac-RLLRLLRLLRLLRLLRLL-NH2), the “efficacy for reducing HSV1 infectivity (in words)” value is “no, or poor, efficacy”. Further, the IC50 (HSV1, Vero cells, Table 4 (Example 2), read-out: Apparent IC50) is 39 µM. Further, the IC50 (HSV-1, Vero cells, Table 6 (Example 3), read-out: IC50) turned out to be 39 µM.
As to `CC(=O)N[C@@H](CC(C)C)C(=O)N[C@@H](CCCNC(=N)N)C(=O)N[C@@H](CCCCN)C(=O)N[C@@H](CC(C)C)C(=O)N[C@@H](CCCNC(=N)N)C(=O)N[C@@H](CCCCN)C(=O)N[C@@H](CCCNC(=N)N)C(=O)N[C@@H](CC(C)C)C(=O)N[C@@H](CC(C)C)C(=O)N[C@@H](CCCNC(=N)N)C(=O)N[C@@H](CC(=O)O)C(=O)N[C@@H](C)C(=O)N[C@@H](CC(=O)O)C(=O)N[C@@H](CC(=O)O)C(=O)N[C@@H](CC(C)C)C(=O)N[C@@H](CCC(N)=O)C(=O)N[C@@H](CCCCN)C(=O)N[C@@H](CCCNC(=N)N)C(=O)N[C@@H](CC(C)C)C(=O)N[C@@H](C)C(N)=O` [GIN 12, LRKLRKRLLR DADDLQKRLA] (Ac-LRKLRKRLLRDADDLQKRLA-NH2), the IC50 was over 40 µM and the “efficacy for reducing HSV1 infectivity (in words)” value was “no, or poor, efficacy”.
For `CC(=O)N[C@@H](CCCNC(=N)N)C(=O)N[C@@H](CC(=O)O)C(=O)N[C@@H](C)C(=O)N[C@@H](CC(=O)O)C(=O)N[C@@H](CC(=O)O)C(=O)N[C@@H](CC(C)C)C(=O)N[C@@H](CCC(N)=O)C(=O)N[C@@H](CCCCN)C(=O)N[C@@H](CCCNC(=N)N)C(=O)N[C@@H](CCCNC(=N)N)C(=O)N[C@@H](CC(=O)O)C(=O)N[C@@H](C)C(=O)N[C@@H](CC(=O)O)C(=O)N[C@@H](CC(=O)O)C(=O)N[C@@H](CC(C)C)C(=O)N[C@@H](CCC(N)=O)C(=O)N[C@@H](CCCCN)C(=O)N[C@@H](CCCNC(=N)N)C(N)=O` [GIN 13, RDADDLQKR RDADDLQKR] (Ac-RDADDLQKRRDADDLQKR-NH2), the IC50 is over 40 µM and the “efficacy for reducing HSV1 infectivity (in words)” value was “no, or poor, efficacy”.
With `CSCC[C@H](NC(=O)[C@H](CCCNC(=N)N)NC(=O)[C@H](C)NC(=O)[C@H](CCCNC(=N)N)NC(=O)[C@H](CC(C)C)NC(=O)[C@H](CCCNC(=N)N)NC(=O)[C@H](CCC(=O)O)NC(=O)CNC(=O)[C@H](CCC(=O)O)NC(=O)[C@H](CCSC)NC(=O)[C@H](CCCNC(=N)N)NC(=O)[C@H](C)NC(=O)[C@H](CCCNC(=N)N)NC(=O)[C@H](CC(C)C)NC(=O)[C@H](CCCNC(=N)N)NC(=O)[C@H](CCC(=O)O)NC(=O)CNC(C)=O)C(=O)N[C@@H](CCC(=O)O)C(N)=O` [GIN 14] (Ac-GERLRARMEGERLRARME-NH2), the IC50 is over 40 µM and the “efficacy for reducing HSV1 infectivity (in words)” value is given as “no, or poor, efficacy”.

(Values after patent publication US7691382B2, “Antiviral polypeptides comprising tandem repeats of APOE 141-149 and variants thereof” (priority 2003, dated 2010).)
